Measured values from US10875874B2, “Ginkgolide B derivative and preparation method and use thereof” (Chengdu Baiyu Ginkgolide Pharmaceuticals Co., Ltd., priority 2015, dated 2020).
≈ marks a conversion by molar mass, not a printed value. Marks after values point to notes of the source that are not given here.

Columns and labels:
[1] = Weekly food intake of SHR rats; type: in vivo, rat
Protocol: (§1) 2.1 Grouping and administration of animals: 112 SHR rats (the female and male SHR rats are half and half, and the female rats are not pregnant) with the body weight of 200-250 g are taken, the rats are enabled to adapt to a laboratory for a period of 5 d, blood pressure is measured once at a day to enable the rats to adapt to the environment and detect stimulation. Then, weighing and numbering are carried out, and the SHR rats are equally divided into 14 groups randomly (each group comprises 8 rats), i.e., an SHR rat model control group, a positive control group (captopril, 27 mg/kg), a BZ large-dose group (120 mg/kg/d), a BZ small-dose group (60 mg/kg/d), a BA large-dose group (120 mg/kg/d), a BA small-dose group (60 mg/kg/d), a BL large-dose group (120 mg/kg/d), a BL small-dose group (60 mg/kg/d), a BM large-dose group (120 mg/kg/d), a BM small-dose group (60 mg/kg/d), a BD large-dose group (120 mg/kg/d), a BD small-dose group (60 mg/kg/d), a GB large-dose group (120 mg/kg/d) and a GB small-dose group (60 mg/kg/d). In addition, 8 healthy Wistar rats are taken as a normal control group. Intragastric administration is performed on the rats of each drug group separately according to the above-mentioned doses by 1 mL/100 g body weight, intragastric administration is performed on the rats of the normal control group and the rats of the SHR rat model control group with an equal volume of distilled water, and administration is performed continuously for 8 weeks.
(§2) 2.2 General state: during observation, conditions such as mind, water drinking, food intake, bowel movement, hair color, body weight and range of motion of rats are observed. Irritable degrees of the rats are divided into III levels: a level I means that the rats are free of obvious response when necks of the rats are seized; a level II means that the rats scream and startle when the necks of the rats are seized; and a level III means that the rats bite or rats of same cages frequently fight when the necks of the rats are seized.
(§3) 3.1 Influence on general state of spontaneously hypertensive rats: the rats of the normal control group are normal in food intake, drinking and motion conditions, sensitive in response, healthy and glossy in hair color, good in mental state and free of any unusual response; the rats of the SHR model group gradually present that back hair is fluffy, clustered and dim, the appetite is reduced, the body weight is reduced, the mind is dispirited and irritable, and the rats are prone to the behaviors of intense resisting, attacking and so on during administration and blood pressure detection, and irritable degrees are mostly changed to a level II and a level III from a level I; and after single administration of ginkgolide B and derivatives thereof, behavioral general state observations of rats of each group are free of obvious difference from those of the model control group.

[2] = tested on: spontaneously hypertensive rats (SHR); test: Caudal artery systolic pressure of spontaneously hypertensive rats, single administration; type: in vivo, rat; settings: x ± s, n = 8
Protocol: as §1
(§4) 2.3 Blood pressure measuring: caudal artery systolic pressure of rats is measured with a Bp-6 noninvasive blood pressure measuring system. Under the condition that the rats are calm, the systolic pressure is continuously measured for 3 times, and the average value of the measured systolic pressure is taken as a pressure measuring result. Observation indexes: (1) single-administration pressure lowering effect: blood pressure of the rats is measured before administration and blood pressure conditions are measured 30 min, 60 min, 90 min and 120 min after first administration; and (2) continuous-administration pressure lowering condition: blood pressure is separately measured 30 min after administration at 1 d, 7 d, 13 d, 19 d, 25 d, 35 d, 49 d and 56 d, the blood pressure is repeatedly measured for 3 times at a day, and the average value of obtained values is taken as a final blood pressure value.

[3] = tested on: spontaneously hypertensive rats (SHR); test: Caudal artery systolic pressure of spontaneously hypertensive rats, 8 weeks of continuous medication; type: in vivo, rat; settings: x ± s, n = 8
Protocol: as §1, §4

[4] = Weekly body weight of SHR rats; type: in vivo, rat
Protocol: as §1, §2, §3

Water solubility test = settings: purified water, thermodynamic from solid
Protocol: Measuring method: samples are ground to obtain fine powder, target compounds are quantitatively weighed, the weighed compounds are added into purified water, and the solubility of the compounds is investigated by ultrasonics.

[5] = 60 mg/kg/d intragastric, week 0
[6] = 60 mg/kg/d intragastric, week 1
[7] = 60 mg/kg/d intragastric, week 2
[8] = 60 mg/kg/d intragastric, week 3
[9] = 60 mg/kg/d intragastric, week 4
[10] = 60 mg/kg/d intragastric, week 5
[11] = 60 mg/kg/d intragastric, week 6
[12] = 60 mg/kg/d intragastric, week 7
[13] = 60 mg/kg/d intragastric, week 8
[14] = 120 mg/kg/d intragastric, week 0
[15] = 120 mg/kg/d intragastric, week 1
[16] = 120 mg/kg/d intragastric, week 2
[17] = 120 mg/kg/d intragastric, week 3
[18] = 120 mg/kg/d intragastric, week 4
[19] = 120 mg/kg/d intragastric, week 5
[20] = 120 mg/kg/d intragastric, week 6
[21] = 120 mg/kg/d intragastric, week 7
[22] = 120 mg/kg/d intragastric, week 8

solubility (Water solubility test): 220 µg/mL (≈ 375 µM)
SMILES: CC(=O)Oc1ccccc1C(=O)O[C@H]1C(=O)O[C@H]2O[C@]34C(=O)OC5C[C@@H](C(C)(C)C)C21[C@@]53[C@@H](O)[C@@H]1OC(=O)[C@@H](C)[C@@]14O (some centres unmarked) [BA]
Average dairy food intake [1, 5]: 17.9 g/day
Average dairy food intake [1, 6]: 18.6^▴ g/d
Average dairy food intake [1, 7]: 19.8^▴ g/d
Average dairy food intake [1, 8]: 19.6^▴ g/d
Average dairy food intake [1, 9]: 18.9^▴ g/d
Average dairy food intake [1, 10]: 20.7^▴▴ g/d
Average dairy food intake [1, 11]: 22.3^▴▴ g/d
Average dairy food intake [1, 12]: 24.6^▴▴ g/d
Average dairy food intake [1, 13]: 25.5^▴▴ g/d
Average dairy food intake [1, 14]: 18.1 g/day
Average dairy food intake [1, 15]: 19.8^▴ g/d
Average dairy food intake [1, 16]: 20.1^▴▴ g/d
Average dairy food intake [1, 17]: 20.8^▴▴ g/d
Average dairy food intake [1, 18]: 21.6^▴▴ g/d
Average dairy food intake [1, 19]: 23.0^▴▴ g/d
Average dairy food intake [1, 20]: 24.5^▴▴ g/d
Average dairy food intake [1, 21]: 25.9^▴▴ g/d
Average dairy food intake [1, 22]: 27.8^▴▴ g/d
Systolic pressure ([2]; 60 mg/kg intragastric single administration, 30 min): 161.36 ± 9.52 mmHg
Systolic pressure ([2]; 60 mg/kg intragastric single administration, 60 min): 159.62 ± 14.25 mmHg
Systolic pressure ([2]; 60 mg/kg intragastric single administration, 90 min): 152.56 ± 11.26 mmHg
Systolic pressure ([2]; 60 mg/kg intragastric single administration, 120 min): 159.87 ± 11.32 mmHg
Systolic pressure ([2]; 60 mg/kg intragastric single administration, before administration): 165.35 ± 11.62 mmHg
Systolic pressure ([2]; 120 mg/kg intragastric single administration, 30 min): 149.69 ± 11.62 mmHg
Systolic pressure ([2]; 120 mg/kg intragastric single administration, 60 min): 155.68 ± 17.35 mmHg
Systolic pressure ([2]; 120 mg/kg intragastric single administration, 90 min): 161.30 ± 15.64 mmHg
Systolic pressure ([2]; 120 mg/kg intragastric single administration, 120 min): 158.25 ± 15.61 mmHg
Systolic pressure ([2]; 120 mg/kg intragastric single administration, before administration): 163.64 ± 10.31 mmHg
Systolic pressure ([3]; 60 mg/kg/d intragastric continuous, 1 d, 30 min after administration): 155.29 ± 10.98 mmHg
Systolic pressure ([3]; 60 mg/kg/d intragastric continuous, 7 d, 30 min after administration): 158.73 ± 13.82 mmHg
Systolic pressure ([3]; 60 mg/kg/d intragastric continuous, 13 d, 30 min after administration): 153.64 ± 9.75 mmHg
Systolic pressure ([3]; 60 mg/kg/d intragastric continuous, 19 d, 30 min after administration): 154.85 ± 9.74 mmHg
Systolic pressure ([3]; 60 mg/kg/d intragastric continuous, 25 d, 30 min after administration): 151.36 ± 10.58 mmHg
Systolic pressure ([3]; 60 mg/kg/d intragastric continuous, 35 d, 30 min after administration): 153.72 ± 13.68 mmHg
Systolic pressure ([3]; 60 mg/kg/d intragastric continuous, 49 d, 30 min after administration): 151.70 ± 13.10 mmHg
Systolic pressure ([3]; 60 mg/kg/d intragastric continuous, 56 d, 30 min after administration): 153.72 ± 12.54 mmHg
Systolic pressure ([3]; 60 mg/kg/d intragastric continuous, before administration): 165.35 ± 11.62 mmHg
Systolic pressure ([3]; 120 mg/kg/d intragastric continuous, 1 d, 30 min after administration): 151.48 ± 9.85 mmHg
Systolic pressure ([3]; 120 mg/kg/d intragastric continuous, 7 d, 30 min after administration): 150.95 ± 9.68 mmHg
Systolic pressure ([3]; 120 mg/kg/d intragastric continuous, 13 d, 30 min after administration): 145.30 ± 11.62 mmHg
Systolic pressure ([3]; 120 mg/kg/d intragastric continuous, 19 d, 30 min after administration): 142.39 ± 12.49 mmHg
Systolic pressure ([3]; 120 mg/kg/d intragastric continuous, 25 d, 30 min after administration): 145.84 ± 11.46 mmHg
Systolic pressure ([3]; 120 mg/kg/d intragastric continuous, 35 d, 30 min after administration): 143.67 ± 115.62 mmHg
Systolic pressure ([3]; 120 mg/kg/d intragastric continuous, 49 d, 30 min after administration): 140.69 ± 14.72 mmHg
Systolic pressure ([3]; 120 mg/kg/d intragastric continuous, 56 d, 30 min after administration): 139.88 ± 13.04 mmHg
Systolic pressure ([3]; 120 mg/kg/d intragastric continuous, before administration): 163.64 ± 10.31 mmHg
Body weight [4, 5]: 228.5 g
Body weight [4, 6]: 233.6 g
Body weight [4, 7]: 244.8^▴ g
Body weight [4, 8]: 251.4 g
Body weight [4, 9]: 257.3 g
Body weight [4, 10]: 263.7^▴ g
Body weight [4, 11]: 269.6^▴ g
Body weight [4, 12]: 281.8^▴▴ g
Body weight [4, 13]: 292.8^▴▴ g
Body weight [4, 14]: 231.6 g
Body weight [4, 15]: 251.4^▴▴ g
Body weight [4, 16]: 257.6^▴▴ g
Body weight [4, 17]: 264.1^▴▴ g
Body weight [4, 18]: 271.2^▴▴ g
Body weight [4, 19]: 280.6^▴▴ g
Body weight [4, 20]: 291.2^▴▴ g
Body weight [4, 21]: 305.9^▴▴ g
Body weight [4, 22]: 320.4^▴▴ g
